Results from the supplement of paper PMC12592484.

Experiments:
Test in all cases: drug sensitivity score (DSS2, normalised partial AUC of dose-response, 72 h CellTiter-Glo viability) (DSS (dimensionless)); higher = more sensitive (stronger growth inhibition / cytotoxicity); extreme values may be limits of the assay
CAF#3 = system: CAF#3 (primary prostate cancer-associated fibroblasts of myCAF-like type)
How it was run: (§1)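 Cells were added to 384-well plates already holding compounds at five doses over a 10,000-fold range: low-passage primary prostate cancer-associated fibroblasts, PF179T, WPMY-1, LNCaP and 22Rv1. Viability was measured 72 h later by CellTiter-Glo 2.0 luminescence and scaled to vehicle and positive-control wells. The drug sensitivity score, computed in BREEZE, is a partial area under the fitted logistic dose–response curve divided by the log of its upper asymptote, with higher scores meaning greater sensitivity.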

CAF#7 = system: CAF#7 (primary prostate cancer-associated fibroblasts of myCAF-like type)
How it was run: as §1

CAF#6 = system: CAF#6 (primary prostate cancer-associated fibroblasts of iCAF-like type)
How it was run: as §1

LNCAP = system: LNCAP
How it was run: as §1

CAF#2 = system: CAF#2 (primary prostate cancer-associated fibroblasts of iCAF-like type)
How it was run: as §1

CAF#4 = system: CAF#4 (primary prostate cancer-associated fibroblasts of iCAF-like type)
How it was run: as §1

PF179T = system: PF179T
How it was run: as §1

CAF#1 = system: CAF#1 (primary prostate cancer-associated fibroblasts of myCAF-like type)
How it was run: as §1

CAF#5 = system: CAF#5 (primary prostate cancer-associated fibroblasts of myCAF-like type)
How it was run: as §1

WPMY-1 = system: WPMY-1
How it was run: as §1

22Rv1 = system: 22Rv1
How it was run: as §1

SMILES: CNC(=O)c1cccc2cc(Oc3ccnc4cc(OCC5(N)CC5)c(OC)cc34)ccc12 [Lucitanib] (tested concentration range 1-10000 nM)
- drug sensitivity score (CAF#3): 6.3
- drug sensitivity score (CAF#7): 13.5
- drug sensitivity score (CAF#6): 6.6
- drug sensitivity score (LNCAP): 3.4
- drug sensitivity score (CAF#2): 5.9
- drug sensitivity score (CAF#4): 7.4
- drug sensitivity score (PF179T): 5.7
- drug sensitivity score (CAF#1): 6
- drug sensitivity score (CAF#5): 3.9
- drug sensitivity score (WPMY-1): 2.8
- drug sensitivity score (22Rv1): 1.8

SMILES: O=C(O)CC[C@H]1CC[C@@](c2cc(F)ccc2F)(S(=O)(=O)c2ccc(Cl)cc2)CC1 [MK-0752] (tested concentration range 0.1-1000 nM)
- drug sensitivity score (CAF#3): 0
- drug sensitivity score (CAF#7): 0
- drug sensitivity score (CAF#6): 0
- drug sensitivity score (LNCAP): 0
- drug sensitivity score (CAF#2): 0
- drug sensitivity score (CAF#4): 0
- drug sensitivity score (PF179T): 0
- drug sensitivity score (CAF#1): 0
- drug sensitivity score (CAF#5): 0
- drug sensitivity score (WPMY-1): 0
- drug sensitivity score (22Rv1): 0

SMILES: NC1(c2ccc(-c3nc4ccn5c(=O)[nH]nc5c4cc3-c3ccccc3)cc2)CCC1 [MK-2206] (tested concentration range 0.1-1000 nM)
- drug sensitivity score (CAF#3): 4
- drug sensitivity score (CAF#7): 1.8
- drug sensitivity score (CAF#6): 3.2
- drug sensitivity score (LNCAP): 11.1
- drug sensitivity score (CAF#2): 2.6
- drug sensitivity score (CAF#4): 2
- drug sensitivity score (PF179T): 1.8
- drug sensitivity score (CAF#1): 2.7
- drug sensitivity score (CAF#5): 3
- drug sensitivity score (WPMY-1): 2.4
- drug sensitivity score (22Rv1): 5.8

SMILES: O=C(c1cccc(Cl)c1F)N1CCN(Cc2cccc(Nc3nccs3)n2)CC1 [MK-8745] (tested concentration range 1-10000 nM)
- drug sensitivity score (CAF#3): 6.8
- drug sensitivity score (CAF#7): 2.6
- drug sensitivity score (CAF#6): 3.4
- drug sensitivity score (LNCAP): 14.7
- drug sensitivity score (CAF#2): 4.3
- drug sensitivity score (CAF#4): 1.1
- drug sensitivity score (PF179T): 5
- drug sensitivity score (CAF#1): 2.6
- drug sensitivity score (CAF#5): 2.8
- drug sensitivity score (WPMY-1): 7.6
- drug sensitivity score (22Rv1): 4

SMILES: O=C(Nc1cccc(NC(=O)c2cccc(O)c2O)c1)c1cccc(O)c1O [MST-312] (tested concentration range 1-10000 nM)
- drug sensitivity score (CAF#3): 8.9
- drug sensitivity score (CAF#7): 11.6
- drug sensitivity score (CAF#6): 10.5
- drug sensitivity score (LNCAP): 15.6
- drug sensitivity score (CAF#2): 15.3
- drug sensitivity score (CAF#4): 12.9
- drug sensitivity score (PF179T): 10.7
- drug sensitivity score (CAF#1): 12.8
- drug sensitivity score (CAF#5): 13.5
- drug sensitivity score (WPMY-1): 10.2
- drug sensitivity score (22Rv1): 10.3

SMILES: CNC(=O)[C@@H](NC(=O)[C@H](CC(C)C)[C@H](O)C(=O)NO)C(C)(C)C [Marimastat] (tested concentration range 1-10000 nM)
- drug sensitivity score (CAF#3): 0.6
- drug sensitivity score (CAF#7): 0
- drug sensitivity score (CAF#6): 0
- drug sensitivity score (LNCAP): 0
- drug sensitivity score (CAF#2): 0
- drug sensitivity score (CAF#4): 0
- drug sensitivity score (PF179T): 0
- drug sensitivity score (CAF#1): 0
- drug sensitivity score (CAF#5): 0
- drug sensitivity score (WPMY-1): 0.4
- drug sensitivity score (22Rv1): 0

SMILES: Cc1ccc(NC(=O)c2ccc(CN3CCN(C)CC3)cc2)cc1Nc1nc(-c2cccnc2)cs1 [Masitinib] (tested concentration range 1-10000 nM)
- drug sensitivity score (CAF#3): 0.6
- drug sensitivity score (CAF#7): 1.9
- drug sensitivity score (CAF#6): 1.6
- drug sensitivity score (LNCAP): 4.3
- drug sensitivity score (CAF#2): 5.3
- drug sensitivity score (CAF#4): 7.6
- drug sensitivity score (PF179T): 2.4
- drug sensitivity score (CAF#1): 4.1
- drug sensitivity score (CAF#5): 3.1
- drug sensitivity score (WPMY-1): 5.3
- drug sensitivity score (22Rv1): 5.3

SMILES: CCN(CC)CCCC(C)Nc1c2ccc(Cl)cc2nc2ccc(OC)cc12 (stereo not drawn) [Mepacrine] (tested concentration range 5-50000 nM)
- drug sensitivity score (CAF#3): 11.3
- drug sensitivity score (CAF#7): 12.6
- drug sensitivity score (CAF#6): 9.9
- drug sensitivity score (LNCAP): 19
- drug sensitivity score (CAF#2): 14.9
- drug sensitivity score (CAF#4): 14.2
- drug sensitivity score (PF179T): 13.7
- drug sensitivity score (CAF#1): 9.1
- drug sensitivity score (CAF#5): 13.4
- drug sensitivity score (WPMY-1): 19.6
- drug sensitivity score (22Rv1): 17.3

SMILES: S=c1[nH]cnc2nc[nH]c12 [Mercaptopurine] (tested concentration range 1-10000 nM)
- drug sensitivity score (CAF#3): 0.1
- drug sensitivity score (CAF#7): 0.1
- drug sensitivity score (CAF#6): 1.4
- drug sensitivity score (LNCAP): 0.2
- drug sensitivity score (CAF#2): 0.1
- drug sensitivity score (CAF#4): 2.8
- drug sensitivity score (PF179T): 0
- drug sensitivity score (CAF#1): 0
- drug sensitivity score (CAF#5): 0
- drug sensitivity score (WPMY-1): 9
- drug sensitivity score (22Rv1): 2.7

SMILES: Cc1ccc(C(=O)Nc2ccc(Oc3cc4cnn(C)c4cc3-c3cn[nH]c3)c(F)c2)c(=O)n1-c1ccc(F)cc1 [Merestinib] (tested concentration range 0.1-1000 nM)
- drug sensitivity score (CAF#3): 3
- drug sensitivity score (CAF#7): 3.9
- drug sensitivity score (CAF#6): 3.5
- drug sensitivity score (LNCAP): 0
- drug sensitivity score (CAF#2): 5.6
- drug sensitivity score (CAF#4): 4.4
- drug sensitivity score (PF179T): 5.3
- drug sensitivity score (CAF#1): 3
- drug sensitivity score (CAF#5): 3.8
- drug sensitivity score (WPMY-1): 4.3
- drug sensitivity score (22Rv1): 0

SMILES: CN(C)C(=N)NC(=N)N [Metformin] (tested concentration range 10-100000 nM)
- drug sensitivity score (CAF#3): 0
- drug sensitivity score (CAF#7): 0
- drug sensitivity score (CAF#6): 0
- drug sensitivity score (LNCAP): 0
- drug sensitivity score (CAF#2): 0
- drug sensitivity score (CAF#4): 0
- drug sensitivity score (PF179T): 0
- drug sensitivity score (CAF#1): 0
- drug sensitivity score (CAF#5): 0
- drug sensitivity score (WPMY-1): 0
- drug sensitivity score (22Rv1): 0

SMILES: CN(Cc1cnc2nc(N)nc(N)c2n1)c1ccc(C(=O)N[C@@H](CCC(=O)O)C(=O)O)cc1 [Methotrexate] (tested concentration range 0.5-5000 nM)
- drug sensitivity score (CAF#3): 0
- drug sensitivity score (CAF#7): 0
- drug sensitivity score (CAF#6): 0.8
- drug sensitivity score (LNCAP): 16.6
- drug sensitivity score (CAF#2): 0
- drug sensitivity score (CAF#4): 1.1
- drug sensitivity score (PF179T): 0
- drug sensitivity score (CAF#1): 0
- drug sensitivity score (CAF#5): 0
- drug sensitivity score (WPMY-1): 17.4
- drug sensitivity score (22Rv1): 0

SMILES: C[C@H]1C[C@@H]2[C@H]([C@@H](O)C[C@@]3(C)[C@H]2CC[C@]3(O)C(=O)CO)[C@@]2(C)C=CC(=O)C=C12 [Methylprednisolone] (tested concentration range 1-10000 nM)
- drug sensitivity score (CAF#3): 1.9
- drug sensitivity score (CAF#7): 1.2
- drug sensitivity score (CAF#6): 0
- drug sensitivity score (LNCAP): 0
- drug sensitivity score (CAF#2): 0
- drug sensitivity score (CAF#4): 0
- drug sensitivity score (PF179T): 0
- drug sensitivity score (CAF#1): 0
- drug sensitivity score (CAF#5): 0
- drug sensitivity score (WPMY-1): 0
- drug sensitivity score (22Rv1): 0
